Like-named read-outs stand apart in the source and are kept apart here.
Assays:
PAFR [1] = settings: literature (Pietri, 2001; Jaracz, 2002); cited from earlier work
PAFR [2] = biological target: T1, PAFR (Cavia porcellus, UniProt P21556); settings: for Ki: Inhibition of [^3H]-WEB 2086 binding, cloned PAFR, Cheng-Prusoff from IC50; for PAFR binding (in words): at the concentrations tested
PAFR [3] = biological target: T1, PAFR; assay type: binding, PAFR transgenic mice
PAFR [4] = biological target: T1, PAFR; test: biochemical
PAFR [5] = test: PAFR antagonism in previous or preliminary studies (literature, unpublished results); settings: preliminary studies (Suehiro, unpublished results)
PAFR [6] = settings: PAF-induced rabbit platelet aggregation (Park, 1996; Hu, 1999; Hu, 2000); cited from earlier work
[7] = Ki, Inhibition of [^3H]-WEB 2086 binding, means of two independent experiments performed in triplicate
[8] = Inhibition of [^3H]-WEB 2086 binding, means of two independent experiments performed in triplicate, read-out: Ki

T1 sequence (P21556 whole entry): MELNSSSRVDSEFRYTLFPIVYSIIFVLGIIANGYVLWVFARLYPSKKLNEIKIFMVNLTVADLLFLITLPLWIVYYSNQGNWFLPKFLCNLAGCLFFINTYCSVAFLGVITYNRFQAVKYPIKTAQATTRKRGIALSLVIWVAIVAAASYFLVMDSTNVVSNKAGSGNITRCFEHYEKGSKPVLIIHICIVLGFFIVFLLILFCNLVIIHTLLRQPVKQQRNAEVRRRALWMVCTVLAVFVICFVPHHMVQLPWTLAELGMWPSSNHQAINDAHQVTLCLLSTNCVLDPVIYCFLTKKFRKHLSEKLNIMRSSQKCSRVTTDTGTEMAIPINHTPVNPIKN

7-O-(4-methylphenyl)-GB
PAFR activity (in words) (PAFR [1]): devoid of PAFR activity

10-O-benzophenone-7-O-dansyl ginkgolide C [Compound 10a]
Ki (PAFR [2]): 3940 nM | times less active than 9a (PAFR [2]; ratio of Ki): ca. 6

10-O-benzoylbenzoic ginkgolide C [Compound 11]
Ki (PAFR [2]): 130 nM

CC1C(=O)OC2C(O)C34C5OC(=O)C3(OC3OC(=O)C(O)C34C(C(C)(C)C)C5O)C12O (stereo not drawn) [7-epi-GC (18), 7-Epi-ginkgolide C]
Ki (PAFR [3]; [7]): 4260 nM

CC1C(=O)OC2C(O)C34C5OC(=O)C3(OC3OC(=O)C(O)C34C(C(C)(C)C)C5Cl)C12O (stereo not drawn) [7α-Cl-GB (22), 7α-Chloro Ginkgolide B]
fold more potent than GC (2) (PAFR [3]; ratio of Ki): 115 | times more potent than GB (1) (PAFR [3]; ratio of Ki): 8

CC1C(=O)O[C@H]2C(O)C34C5OC(=O)[C@@]3(OC3OC(=O)[C@H](O)C34C(C(C)(C)C)[C@@H]5N=[N+]=[N-])[C@@]12O (stereo partly drawn) [7α-N3-GB (20), 7α-Azido Ginkgolide B]
Ki (PAFR [3]; [8]): 550 nM

CCNC1C(C(C)(C)C)C23C(OC(=O)C2O)OC24C(=O)OC1C32C(O)C1OC(=O)C(C)C14O (stereo not drawn) [7α-NHEt-GB (26), 7α-N-Ethylamino Ginkgolide B]
Ki (PAFR [3]; [8]): 1620 nM | Ki (PAFR [3]; [7]): 550 to 1620 nM

CNC1C(C(C)(C)C)C23C(OC(=O)C2O)OC24C(=O)OC1C32C(O)C1OC(=O)C(C)C14O (stereo not drawn) [7α-NHMe-GB (25), 7α-N-Methylamino Ginkgolide B]
Ki (PAFR [3]; [8]): 610 nM | Ki (PAFR [3]; [7]): 550 to 1620 nM

CC(=O)OC1C(C(C)(C)C)C23C(OC(=O)C2O)OC24C(=O)OC1C32C(O)C1OC(=O)C(C)C14O (stereo not drawn) [7α-OAc-GB (17), 7α-O-Acetate Ginkgolide B]
Ki (PAFR [3]; [8]): 7840 nM

CC1C(=O)OC2C(O)C34C5OC(=O)C3(OC3OC(=O)C(O)C34C(C(C)(C)C)C5OC(=O)Cc3ccccc3)C12O (stereo not drawn) [7α-OCOCH2Ph-GB (19), 7α-O-Phenylacetate Ginkgolide B]
Ki (PAFR [3]; [7]): 2400 nM

CC1C(=O)OC2C(O)C34C5OC(=O)C3(OC3OC(=O)C(OCc6ccccc6)C34C(C(C)(C)C)C5F)C12O (stereo not drawn) [10-OBn-7α-F-GB (30), 10-O-Benzyl-7α-fluoro Ginkgolide B]
Ki (PAFR [3]; [7]): 100 nM | fold improved affinity compared to non-benzylated derivative (PAFR [3]; ratio of Ki): 10

CC1C(=O)OC2C(O)C34C5CC(C(C)(C)C)C36C(OC(=O)C6OCc3ccccc3)OC4(C(=O)O5)C12O (stereo not shown) [10-OBn-GB (28), 10-O-Benzyl Ginkgolide B]
Ki (PAFR [3]; [8]): 120 nM

CC1C(=O)OC2C(O)C34C5OC(=O)C3(OC3OC(=O)C(OCc6ccccc6)C34C(C(C)(C)C)C5O)C12O (stereo not shown) [10-OBn-GC (29), 10-O-Benzyl Ginkgolide C]
Ki (PAFR [3]; [8]): 1670 nM

CC1C(=O)OC2C(O)C34C5OC(=O)C3(OC3OC(=O)C(OCc6ccccc6)C34C(C(C)(C)C)C5O)C12O (stereo not drawn) [10-OBn-epi-GC (31), 10-O-Benzyl-7-epi-ginkgolide C]
Ki (PAFR [3]; [8]): 600 nM | fold improved affinity compared to non-benzylated derivative (PAFR [3]; ratio of Ki): 7

CC(C)(C)[C@]1(O)CC2OC(=O)CC23C(=O)OC2OC(=O)[C@H](O)C231 (stereo partly shown) [BB (6), bilobalide]
Ki (PAFR [2]): > 50000 nM | PAFR binding (in words) (PAFR [2]): not active in concentrations up to 100 μM

CC1C(=O)OC2C(O)C34C5CC(C(C)(C)C)C36C(OC(=O)C6OCc3ccc(C6(C(F)(F)F)N=N6)cc3)OC4(C(=O)O5)C12O (stereo not shown) [Compound 8b, 10-O-(trifluoromethyl-3H-diazirine)benzyl ginkgolide B]
Ki (PAFR [4]): 150 nM

CC1C(=O)OC2C(O)C34C5CC(C(C)(C)C)C36C(OC(=O)C6OCc3c(F)c(F)c(N=[N+]=[N-])c(F)c3F)OC4(C(=O)O5)C12O (stereo not shown) [Compound 8c, 10-O-tetrafluorobenzylazide ginkgolide B]
Ki (PAFR [4]): 90 nM

CC1C(=O)OC2C(O)C34C5OC(=O)C3(OC3OC(=O)C(OCc6c(F)c(F)c(N=[N+]=[N-])c(F)c6F)C34C(C(C)(C)C)C5O)C12O (stereo not shown) [Compound 9c, 10-O-tetrafluorobenzylazide ginkgolide C]
Ki (PAFR [4]): 790 nM

CC1C(=O)OC2C(OS(=O)(=O)c3cccc4c(N(C)C)cccc34)C34C5OC(=O)C3(OC3OC(=O)C(OCc6ccc(C(=O)c7ccccc7)cc6)C34C(C(C)(C)C)C5O)C12O (stereo not shown) [Compound 10b, 10-O-benzophenone-1-O-dansyl ginkgolide C]
Ki (PAFR [4]): 960 nM | times more potent than 10a (PAFR [2]): ca. four

CC1C(=O)OC2C(O)C34C5OC(=O)C3(OC3OC(=O)C(O)C34C(C(C)(C)C)C5F)C12O (stereo not shown) [Compound 13, 7-Fluoro ginkgolide B]
fold more potent as a PAFR antagonist compared to GC (2) (PAFR [5]): 15 | fold more potent / improved affinity to PAFR relative to GC (3) (PAFR [2]): ca. 10

COC1C(=O)OC2OC34C(=O)OC5CC(C(C)(C)C)C21C53C(O)C1OC(=O)C(C)C14O (stereo not shown) [Compound 14, 10-O-Methyl ginkgolide B]
Ki (PAFR [4]): 3160 nM

C[C@@H]1C(=O)O[C@H]2C[C@@]34[C@H]5C[C@@H](C(C)(C)C)[C@]36[C@@H](OC(=O)[C@@H]6O)O[C@@]4(C(=O)O5)[C@]21O [GA (1), ginkgolide A]
Ki (PAFR [2]): 1460 nM

CC1C(=O)OC2C(O)C34C5CC(C(C)(C)C)C36C(OC(=O)C6O)OC4(C(=O)O5)C12O (stereo not shown) [GB (2), ginkgolide B, reference compound]
Ki (PAFR [4]): 560 nM | fold more potent than GC (2) (PAFR [3]; ratio of Ki): ca. 25 | Ki (PAFR [3]; read-out: Ki): 880 nM | IC50 (PAFR [6]): ~200 nM

CC1C(=O)OC2C(O)C34C5OC(=O)C3(OC3OC(=O)C(O)C34C(C(C)(C)C)C5O)C12O (stereo not shown) [GC (3), ginkgolide C, reference compound]
Ki (PAFR [4]): 12600 nM

C[C@@H]1C(=O)O[C@@H]2[C@H]1[C@@]13OC4OC(=O)[C@H](O)C45[C@H](C(C)(C)C)[C@@H](O)C(OC1=O)[C@]53[C@H]2O (stereo partly shown) [GM (5), ginkgolide M]
Ki (PAFR [2]): > 50000 nM | PAFR binding (in words) (PAFR [2]): devoid of PAFR binding

Neoginkgolide C [Compound 23]
Ki (PAFR [3]; [8]): > 40000 nM

ginkgolide J [GJ (4)]
Ki (PAFR [2]): 9900 nM

Source: US7473788B2, “Analogs of terpene trilactones from Ginkgo biloba and related compounds and uses thereof” (The Trustees of Columbia University in the City of New York, priority 2002, dated 2009)
